Source: patent US20100021895A1, “Vectors for Inducing Homozygous Mutations and Methods of Using Same” (priority 2006, published 2010)

Columns and labels:
[1] = test system: HSV thymidine kinase (TK) gene in cells containing an entrapment mutation in the Hesx1 gene; experiment: TK gene loss, selection in gancyclovir; format: cell-based, mouse
[2] = test system: mouse embryonic stem cell clones, each containing a neomycin resistance gene (Neo) inserted by the GTR1.3 gene trap retrovirus; experiment: Carcinogen-induced LOH: frequency of colony formation in 2.0 mg/ml G418; format: cell-based; settings: for fold increase of frequency of colony formation: 2 mg/ml G418 0.25 mM HU
Experimental: Carcinogen-induced LOH was measured in a panel of 53 mouse embryonic stem cell clones, each containing a neomycin resistance gene (Neo) inserted into a different cellular gene (FIG. 9) by the GTR1.3 gene trap retrovirus. Gene entrapment by GTR1.3 involves selection for inserted Neo sequences that can splice to the 3′ ends of cellular genes (Lin et al.,). The disrupted genes were identified by sequencing Neo-gene fusion transcripts and were localized on the mouse genome. Previous studies have shown that cells homozygous for GTR1.3-induced mutations can be selected from heterozygous cells simply by selecting for resistance to higher concentrations of G418, a method first shown to select for homozygous mutations induced by gene targeting (15). Mitotic recombination appears to be the preferred mechanism of spontaneous LOH involving Neo genes inserted in ES cells (17) and LOH involving other genes and cell types in vivo (12, 13). LOH doubles the number of Neo genes per cell and thus allows moderately resistant cells to acquire resistance to higher concentrations of G418. The frequencies of spontaneous LOH measured at the 53 different sites ranged from 1.3×10^−5 to 1.2×10^−4 (Table 3), similar to those reported for other inserted neomycin resistance genes (15, 17) in ES cells and for loci such as TK and APRT in other cell types (12, 13).
A variety of chemical agents were tested for their ability to enhance the frequencies at which mutant cells survive in 2.0 mg/ml G418. Methyl-nitrosurea (MNU) is an alkylating agent that produces a variety of mono-methylated DNA adducts, hydroxyurea (HU) stalls DNA replication complexes, doxorubicin interferes with DNA synthesis, methothrexate is a competitive inhibitor of dihydrofolate reductase but is not genotoxic, diepoxybutane and mitomycin C induce inter-strand DNA crosslinks, UV irradiation causes intra- and inter-strand pyrimidine dimmers, and ethidium bromide intercalates between DNA strands to damage DNA (For additional information about these agents see http://toxnet.nlm.nih.gov and http://lisntweb.swan.ac.uk/cmgt/index.htm). […] The fold-increase for MNU and HU ranged from 39-123 and 18-68, respectively (Table 3). The optimal concentrations of each agent to stimulate colony formation with minimal toxicity (<5% loss of cell viability) were determined in advance (FIG. 13). […] Each of these agents was tested two or more times on at least 25 entrapment lines.
Serially diluted cells were plated onto 150 mm plates containing drug-free media and allowed to attach overnight. Unattached cells were removed and media containing the indicated concentrations of methyl-nitrosourea, hydroxyurea, ethidium bromide, doxorubicin, methotrexate, diepoxybutane, or mitomycin C was put onto cells for 4 hours (or cells were exposed to ultraviolet light in the absence of media and allowed to recover in drug-free media for 4 hours). Cells were then rinsed twice with drug-free media and selection media containing 0.0, 0.3, or 2.0 mg/ml G418 was put onto cells. After 12 days of selection, the number of colonies surviving was counted and the frequency of colony formation was determined by dividing the number of colonies obtained from 2.0 mg/ml G418 selection to that obtained from parallel experiments with 0.3 mg/ml G418 selection. TK gene loss was assessed following selection in media containing 2 μg/ml gancyclovir.
Table 3. The frequency of colony formation in high concentrations of G418. The frequency of colony formation is listed for all 53 clones examined. Frequency was determined by dividing the number of colonies surviving 2.0 mg/ml G418 selection to the number surviving parallel experiments with 0.3 mg/ml G418 selection, and is the average of at least 3 independent experiments for each clone. Standard deviations, which ranged from 5 to 70% of the mean values, have been omitted for clarity. […]

Compound: NC(=O)NO [HU, hydroxyurea]
- Ratio of Freq. TK loss ([1]; Table 2, C8TK1sN and C8TK1hN, Treatment none): 0.6
- Freq. TK loss ([1]; Table 4, clone printed C8TK1hN (EL LOH induced by HU), Treatment HU): 4.9 × 10^−4
- Freq. TK loss ([1]; Table 4, clone printed C8TK1hN (EL LOH induced by HU, TK+ EL−/−), Treatment none): 1.2 × 10^−5
- Freq. TK loss ([1]; Table 4, clone printed C8TK1sN (Spont. EL LOH), Treatment HU): 2.8 × 10^−4
- Ratio of Freq. TK loss ([1]; Table 4, printed C8TK1sN and C8TK1hN, Treatment HU): 1.8
- Ratio of Freq. TK loss ([1]; Table 4, printed C8TK1sN and C8TK1hN, Treatment none): 2.3
- fold-increase of colonies surviving in high G418, range over clones ([2]; 0.25 mM HU, Table 3 clones): 18-68 fold
- number of colonies surviving in high G418 ([2]; 0.5 mM MNU or 0.25 mM HU (FIG. 10)): dramatically increased
- fold increase of frequency of colony formation ([2]; clone b2p1-a5 (12C3)): (+35-fold)
- fold increase of frequency of colony formation ([2]; clone b2p1-a9 (2H1)): (+36-fold)
- fold increase of frequency of colony formation ([2]; clone b2p1-b4 (9E1)): (+32-fold)
- fold increase of frequency of colony formation ([2]; clone b2p1-b9 (4B1)): (+38-fold)
- fold increase of frequency of colony formation ([2]; clone b2p1-c6 (19A)): (+22-fold)
- fold increase of frequency of colony formation ([2]; clone b2p1-d3 (19C1)): (+28-fold)
- fold increase of frequency of colony formation ([2]; clone b2p1-d8 (4D2.3)): (+40-fold)
- fold increase of frequency of colony formation ([2]; clone b2p1-d9 (7E3)): (+38-fold)
- fold increase of frequency of colony formation ([2]; clone b2p1-d10 (9A1)): (+19-fold)
- fold increase of frequency of colony formation ([2]; clone b2p1-e3 (4D2.3)): (+32-fold)
- fold increase of frequency of colony formation ([2]; clone b2p1-e10 (19C1)): (+25-fold)
- fold increase of frequency of colony formation ([2]; clone b2p1-f3 (17E1.3)): (+47-fold)
- fold increase of frequency of colony formation ([2]; clone b2p1-f10 (3F2.1)): (+33-fold)
- fold increase of frequency of colony formation ([2]; clone b2p1-f12 (1H5)): (+25-fold)
- fold increase of frequency of colony formation ([2]; clone b2p1-h1 (7A2)): (+21-fold)
- fold increase of frequency of colony formation ([2]; clone b2p1-h5 (1H5)): (+42-fold)
- fold increase of frequency of colony formation ([2]; clone b2p1-h8 (6A3.3)): (+42-fold)
- fold increase of frequency of colony formation ([2]; clone b3p1-h1 (18E2)): (+42-fold)
- fold increase of frequency of colony formation ([2]; clone b3p3-a4 (4A5)): (+33-fold)
- fold increase of frequency of colony formation ([2]; clone b3p3-a9 (4A5)): (+18-fold)
- fold increase of frequency of colony formation ([2]; clone b3p3-b6 (3F1)): (+18-fold)
- fold increase of frequency of colony formation ([2]; clone b3p3-c8 (14A3)): (+32-fold)
- fold increase of frequency of colony formation ([2]; clone b3p3-c12 (5G2)): (+20-fold)
- fold increase of frequency of colony formation ([2]; clone b3p3-d4 (1C3)): (+28-fold)
- fold increase of frequency of colony formation ([2]; clone b3p3-d8 (1C2)): (+68-fold)
- fold increase of frequency of colony formation ([2]; clone b3p3-d9 (4E2)): (+22-fold)
- fold increase of frequency of colony formation ([2]; clone b3p3-g6 (10C2)): (+29-fold)
- fold increase of frequency of colony formation ([2]; clone b3p3-g10 (4E1)): (+24-fold)
- fold increase of frequency of colony formation ([2]; clone b3p3-h2 (19C1)): (+26-fold)
- fold increase of frequency of colony formation ([2]; clone b3p3-h4 (5E2)): (+50-fold)
- fold increase of frequency of colony formation ([2]; clone b3p3-h8 (19A)): (+37-fold)
- fold increase of frequency of colony formation ([2]; clone b3p4-a1 (4A4)): (+25-fold)
- fold increase of frequency of colony formation ([2]; clone b3p4-a5 (3B)): (+36-fold)
- fold increase of frequency of colony formation ([2]; clone b3p4-b1 (3A2)): (+44-fold)
- fold increase of frequency of colony formation ([2]; clone b3p4-b2 (11B1.3)): (+40-fold)
- fold increase of frequency of colony formation ([2]; clone b3p4-b8 (4C6)): (+27-fold)
- fold increase of frequency of colony formation ([2]; clone b3p4-b12 (3A1)): (+24-fold)
- fold increase of frequency of colony formation ([2]; clone b3p4-c1 (17B3)): (+50-fold)
- fold increase of frequency of colony formation ([2]; clone b3p4-c2 (8C3)): (+50-fold)
- fold increase of frequency of colony formation ([2]; clone b3p4-c9 (15F2)): (+20-fold)
- fold increase of frequency of colony formation ([2]; clone b3p4-c12 (17E2)): (+33-fold)
- fold increase of frequency of colony formation ([2]; clone b3p4-d10 (14E5)): (+54-fold)
- fold increase of frequency of colony formation ([2]; clone b3p4-d12 (1C3)): (+51-fold)
- fold increase of frequency of colony formation ([2]; clone b3p4-e1 (2G3)): (+32-fold)
- fold increase of frequency of colony formation ([2]; clone b3p4-e3 (15D3)): (+41-fold)
- fold increase of frequency of colony formation ([2]; clone b3p4-e7 (12C1)): (+44-fold)
- fold increase of frequency of colony formation ([2]; clone b3p4-f2 (4E1)): (+36-fold)
- fold increase of frequency of colony formation ([2]; clone b3p4-f6 (7E3)): (+26-fold)
- fold increase of frequency of colony formation ([2]; clone b3p4-f10 (8A4)): (+36-fold)
- fold increase of frequency of colony formation ([2]; clone b3p4-g3 (1C3)): (+34-fold)
- fold increase of frequency of colony formation ([2]; clone b3p4-g8 (10C1)): (+34-fold)
- fold increase of frequency of colony formation ([2]; clone b3p4-g9 (2C2)): (+32-fold)
- fold increase of frequency of colony formation ([2]; clone b3p4-h11 (8A1.1)): (+33-fold)
- survival of mutant ES cells in media containing 2.0 mg/ml G418 ([2]; ES cells heterozygous for Xrcc5 entrapment mutation, 4 hours with 0.5 mM methyl-nitrosourea, 0.25 mM hydroxyurea or 100 ng/ml diepoxybutane): enhances the survival
- overall extent of LOH induced ([2]; single exposure to non-toxic levels): ~1 % of the genome
